Measured values published in PMC10714399, “Open Source Antibiotics: Simple Diarylimidazoles Are Potent against Methicillin-Resistant Staphylococcus aureus” (ACS Infectious Diseases, 2023).
Converted amounts (≈) assume the structure as drawn. Read-outs that look alike come from different tables or passages of the source.

Legend:
[1] = system: Staphylococcus aureus NCTC 13373 (mecA-positive; methicillin-resistant); experiment: In vitro antibacterial activity, MIC (UCL School of Pharmacy assay), MRSA; type: cell-based; conditions: for MIC: Staphylococcus aureus
Method in brief: (§1)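 Each organism was taken from overnight tryptone soya agar, suspended in PBS at A600 0.1, diluted 1:100 in isosensitest broth and added to serially diluted compound (32 to 0.03 μg/mL).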

[2] = system: Enterococcus faecalis ATCC 51299 (vanA-positive; vancomycin-resistant); experiment: In vitro antibacterial activity, MIC (UCL), VRE; type: cell-based
Description: Staphylococcus aureus NCTC 13373 (mecA-positive; methicillin-resistant, NCTC 13373) was supplied by the National Collection of Type Cultures (NCTC), Public Health England, United Kingdom. Other organisms, S. aureus ATCC 25923 (methicillin-susceptible) and Enterococcus faecalis ATCC 51299 (vanA-positive; vancomycin-resistant), were obtained from the American Type Culture Collection (ATCC) via LGC Standards, UK. A suspension of each organism was prepared from an overnight plate culture (tryptone soya agar) in phosphate-buffered saline (PBS) and adjusted to an absorbance reading at 600 nm of 0.1, which is approximately equivalent to 1 × 10^8 colony-forming units (CFU) per mL. The cultures were further diluted 1:100 in isosensitest broth (Oxoid, United Kingdom) before 100 μL was used to inoculate each well of a 96-well plate that contained diluted samples of the OSA series. Compounds were evaluated over a 2-fold dilution range from 32 to 0.03 μg/mL. Stocks of the samples were prepared in 100% DMSO at […] before being diluted in isosenstitest broth. The highest concentration of DMSO present was 2%, which has been previously shown not to inhibit the growth of the microorganisms (data not shown). […] Vancomycin was used as a quality control compound.

Aqueous solubility = type: physicochemical; conditions: for solubility: thermodynamic from solid
Text: To guide our initial SAR exploration work, we obtained liver microsomal intrinsic clearance data for 5 of the 18 compounds assayed by CO-ADD (Supporting Information - CDCO Report and Supporting Information - Biology). We then acquired intrinsic clearance (CLint), plasma protein binding (PPB), and solubility data on further compounds throughout the SAR campaign (Supporting Information - Biology, Tables S3 and S4). […] The more polar compounds (lower LogD) had reduced PPB and were more metabolically stable.
(§2) Table S4. ADME and Pharmacokinetics: compounds only appearing in the Supplementary […]
(§3) MRSA Aqueous HLM CLint Rat Hep CLint
(§4) Cmpd MIC Solubility Human PPB (%) (µL/min/mg (µL/min/10x6 LogD7.4
(§5) (µg/mL) (µM) protein) cells)
(§6) ADME and toxicity for compounds were measured according to procedures outlined in the manuscript submitted in parallel to this one;2 other procedures were used for those compounds analysed by Monash University (in vitro ADME) or UCL (toxicity), both described in the main

[3] = Human plasma protein binding (PPB); type: in vitro ADME; conditions: human, plasma
Text: (§7) To guide our initial SAR exploration work, we obtained liver microsomal intrinsic clearance data for 5 of the 18 compounds assayed by CO-ADD (Supporting Information - CDCO Report and Supporting Information - Biology). We then acquired intrinsic clearance (CLint), plasma protein binding (PPB), and solubility data on further compounds throughout the SAR campaign (Supporting Information - Biology, Tables S3 and S4).
as §2, §3, §4, §5, §6

[4] = Human liver microsome intrinsic clearance; type: in vitro ADME
Text: as §7, §2, §3, §4, §5, §6

[5] = Rat hepatocyte intrinsic clearance; type: in vitro ADME
Text: as §7, §2, §3, §4, §5, §6

[6] = system: S. aureus ATCC 25923 (methicillin-susceptible); experiment: In vitro antibacterial activity, MIC (UCL), MSSA; type: cell-based, Staphylococcus aureus; conditions: Staphylococcus aureus; read-out: MSSA MIC (UCL)
Method in brief: as §1

[7] = system: MRC-5SV2 (human lung fibroblast cell line); experiment: Toxicity against MRC-5SV2; type: cell-based; conditions: MRC5 cells
Description: as §6

[8] = system: PMM (primary mouse macrophages); experiment: Toxicity against PMM; type: cell-based; conditions: PMM
Description: as §6

[9] = NEU, read-out: Aqueous Solubility (NEU)
[10] = human plasma, NEU, read-out: Human PPB (NEU) (converted)
[11] = human liver microsomes, NEU, read-out: HLM CLint (NEU)
[12] = rat hepatocytes, NEU, read-out: Rat Hep CLint (NEU)

Compound | MIC ([1]; UCL, read-out: MRSA MIC (UCL)) [µg/mL] | MIC ([2]; read-out: VRE MIC (UCL)) [µg/mL] | solubility (Aqueous solubility; [9]) [µM] | fraction unbound [3, 10] | HLM CLint (NEU) ([4]; human liver microsomes, NEU) [uL/min/mg protein] | Rat Hep CLint (NEU) ([5]; rat hepatocytes, NEU) [uL/min/10x6 cells] | activity against MRSA, in words [1] | MIC ([1]; 16 h, read-out: MRSA MIC) [µg/mL] | MIC ([1]; read-out: MRSA MIC) [µg/mL] | MIC ([2]; read-out: VRE MIC) [µg/mL] | solubility (Aqueous solubility; read-out: Aqueous Solubility) [µM] | fraction unbound ([3]; read-out: Human PPB (converted)) | microsomal CLint ([4]; human, liver microsomes, read-out: HLM CLint) [µL/min/mg] | hepatocyte CLint ([5]; rat, hepatocytes, Figure 4, read-out: Rat Hep CLint) [µL/min/1e6 cells] | Aqueous Solubility (NEU) (Aqueous solubility; NEU) [µM] | MIC [6] [µg/mL] | microsomal CLint [4, 11] [µL/min/mg] | MRC5 TC50 [7] [µM] | PMM TC50 [8] [µM] | hepatocyte CLint [5, 12] [µL/min/1e6 cells]
FC(F)(F)Oc1ccc(-c2c(-c3ccccn3)nc3n2CCC3)cc1 [OSA_000868] | 8 (≈ 23.2 µM) | 32 (≈ 92.7 µM) | 38 (≈ 13.1 µg/mL) | 0.044 | 62.2 | 54.1 |  |  |  |  |  |  |  |  |  |  |  |  |  | 
CN(C)C(=O)c1ccc(-c2c(-c3ccccn3)nc3n2CCC3)cc1 [compound 974] |  |  |  |  |  |  | not tolerated | > 32 | > 32 | > 32 | 782 (≈ 260 µg/mL) | 0.55 | < 3 | < 1 |  |  |  |  |  | 
C[S+]([O-])c1ccc(-c2c(-c3ccccn3)nc3n2CCC3)cc1 (stereo not drawn) [OSA_000838] | > 32 | > 32 |  | 0.45 | <3 | <1 |  |  |  |  |  |  |  |  | 756 |  |  |  |  | 
Fc1ccc(N(CC2CC2)c2c(-c3ccccn3)nc3ccccn23)cc1 [OSA_000979] | 2 (≈ 5.58 µM) | 4 (≈ 11.2 µM) | 2 (≈ 0.717 µg/mL) | 0.0067 |  | 141 |  |  |  |  |  |  |  |  |  | 2 (≈ 5.58 µM) | 105 | 7.8 | 4 | 
Clc1ccc(-c2c(-c3ccccn3)nc3n2CCC3)cc1Cl [OSA_000876] | 8 (≈ 24.2 µM) | 8 (≈ 24.2 µM) | 3 (≈ 0.991 µg/mL) | 0.015 | 100 | 37.7 |  |  |  |  |  |  |  |  |  |  |  |  |  | 
COc1ccc2nc(-c3ccccn3)c(N(C)c3ccc(F)cc3)n2c1 [OSA_000980] | 4 (≈ 11.5 µM) | 8 (≈ 23 µM) | 17 (≈ 5.92 µg/mL) | 0.02 | 251 |  |  |  |  |  |  |  |  |  |  | 4 (≈ 11.5 µM) |  | 2 | 8 | > 300
CCN(c1ccc(F)cc1)c1c(-c2ccccn2)nc2ccccn12 [OSA_000981] | 2 (≈ 6.02 µM) | 8 (≈ 24.1 µM) | 31 (≈ 10.3 µg/mL) | 0.022 | 180 |  |  |  |  |  |  |  |  |  |  | 2 (≈ 6.02 µM) |  | 4.9 | 8 | 148
c1ccc(-c2nc3n(c2-c2ccc4sc5ccccc5c4c2)CCC3)nc1 [OSA_000831] | 8 (≈ 21.8 µM) |  | 3 (≈ 1.1 µg/mL) | 0.0008 | 42.6 | 151 |  |  |  |  |  |  |  |  |  |  |  |  |  | 
N#Cc1ccc(-c2c(-c3ccccn3)nc3n2CCC3)cc1 [OSA_000975] | 4 (≈ 14 µM) | 16 (≈ 55.9 µM) |  | 0.29 | 99.1 | 7.99 |  |  |  |  |  |  |  |  | 38 |  |  | 25.9 | 64 | 
Clc1ccc(-c2c(-c3ccccn3)nc3n2CCC3)cc1 [OSA_000875] | 4 (≈ 13.5 µM) | 16 (≈ 54.1 µM) | 4 (≈ 1.18 µg/mL) | 0.033 |  | 21.9 |  |  |  |  |  |  |  |  |  |  | 168 | 5.45 | 8 | 
CN(C)C(=O)c1ccc(-c2c(-c3ccccn3)nc3n2CCC3)cc1 [OSA_000974] | > 32 | > 32 |  | 0.55 | <3 | <1 |  |  |  |  |  |  |  |  | 782 |  |  |  |  | 
Fc1cccc(-c2c(-c3ccccn3)nc3n2CCC3)c1 [OSA_000872] | > 32 | > 32 |  |  |  |  |  |  |  |  |  |  |  |  |  |  |  | 7.2 | 54.63 | 
